Type in all cases: in vivo
Common to all, as to set-up: unit not given here

The subject of experiment [1] is spontaneously hypertensive rat (SHR). Put plainly: Blood pressure-lowering effect of combined administration of angiotensin receptor blocker and dapagliflozin in SHR. As to conditions: Dapagliflozin 1 mg/kg/day. Here is the method: (§1) The animals were housed in a room with a temperature of […] relative humidity of 50±10%, and a 12-hour light/dark cycle, and food and water were provided ad libitum.
(§2) All data are expressed as mean±S.E.M. Blood pressure measurements were schematized using GraphPad Prism 9 (GraphPad Software Inc., San Diego, CA).
Blood pressure was measured daily immediately before (0 hr) and 4 hours after (4 hr) dosing while administering the drug for a total of 19 days, and the recovery of blood pressure was monitored during a 1-week recovery period after the end of administration.

Experiment [2] has the same test system. Put plainly: Blood pressure-lowering effect of combined administration of angiotensin receptor blocker and empagliflozin in SHR. Particulars: Empagliflozin 1 mg/kg/day. Here is the method:
as §1, §2
Blood pressure was measured daily immediately before (0 hr) and 4 hours after (4 hr) dosing while administering the drug for a total of 19 days, and the recovery of blood pressure was monitored during a 1-week recovery period after the end of administration. Specifically, the animals were divided into two groups to evaluate the blood pressure response when fimasartan (Group 1) or dapagliflozin (Group 2) was administered alone, and to evaluate the blood pressure response to the addition of the other drugs in sequentially increasing doses, and the results are shown in FIG. 2.
The experiments were conducted in the same manner as in Example 3 above, but using empagliflozin as an SGLT2 inhibitor.
The angiotensin receptor blockers, fimasartan, azilsartan, and olmesartan were divided by dose, and each administered alone or in combination with empagliflozin, and the results of blood pressure measurements in each experimental group are shown in Table 4 and FIGS. 7 to 9 below.

Experiment [3] shares this test system. Described as above. Particulars: Empagliflozin 1 mg/kg/day, Day 14 (4 h).

Molecules are shown by their SMILES.

On to `CCOc1ccc(Cc2cc([C@@H]3O[C@H](CO)[C@@H](O)[C@H](O)[C@H]3O)ccc2Cl)cc1` [Dapagliflozin, dapagliflozin], for which the “Blood pressure, Mean” value in experiment [1] (Day 1 (pre-dose)) came to 100.0; in experiment [1] (Day 7 (4 h)), 101.2; in experiment [1] (Day 14 (4 h)), 96.5; in experiment [1] (Recovery), 105.5.

`OC[C@H]1O[C@@H](c2ccc(Cl)c(Cc3ccc(O[C@H]4CCOC4)cc3)c2)[C@H](O)[C@@H](O)[C@@H]1O` [Empagliflozin, empagliflozin]: the “Blood pressure, Mean” value in experiment [2] (Day 1 (pre-dose)) was determined as 100.0; in experiment [2] (Day 7 (4 h)) it was 97.1; in experiment [2] (Recovery) it was 101.8; in experiment [3], 96.4.

For the origin of these results see patent publication US20250000849A1, “COMPOSITE COMPOSITION CONTAINING ANGIOTENSIN RECEPTOR BLOCKER AND SGLT2 INHIBITOR” (MEDITAKE CO., LTD., priority 2021, published 2025).
